Test results: PMC4977052, “On the Utility of ToxCast™ and ToxPi as Methods for Identifying New Obesogens” (Environmental Health Perspectives, 2016)
Where two headings read alike, the source gives them in different places.

Experiments:
3T3-L1 preadipocytes = assay: 3T3-L1 adipogenesis assay (lipid accumulation, adipogenic gene expression); assay type: cell-based; details: for Adipogenesis 3T3-L1 (result in words): 0.02-20 μM, 5 days after MDI induction; for Adipogenic gene expression (Fabp4, Fsp27, Lpl), QPCR: 3T3-L1, Figure 2A; for Induction of adipogenesis in 3T3-L1 preadipocytes, doses: lipid accumulation, Nile red/Hoechst, Figure 2A
In short: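 After 2-day MDI induction with biotin and pantothenate, 3T3-L1 cells were treated 5 days with chemicals at 0.02–20 μM (0.1% DMSO; 10 μM if toxic). Lipid read as Nile red/Hoechst fluorescence ratio; adipogenic genes by QPCR, 2^ΔΔCt versus 36b4, normalized to DMSO.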

[1] = system: mouse bone marrow-derived mesenchymal stem cells (mBMSCs); assay type: cell-based; details: for Induction of adipogenesis in mBMSCs, doses: lipid accumulation, Nile red/Hoechst; for Induction of adipogenesis in mBMSCs, doses / Adipogenic gene expression (Fabp4, Fsp27, Lpl), QPCR: Figure 2B; for Adipogenic gene expression (Fabp4, Fsp27, Lpl), QPCR: mBMSCs
Experimental: A total of 8 × 10^4 cells/well mouse bone marrow-derived mesenchymal stem cells (mBMSCs) (OriCell™) were seeded in 12-well plates in basic medium: high-glucose DMEM (Hyclone) containing 10% calf bovine serum (Premium Select, Atlanta Biologicals), 100 IU/mL penicillin, 100 μg/mL streptomycin, and 1 mM sodium pyruvate. mBMSCs were induced to differentiate in differentiation media (low glucose αMEM containing 15% fetal bovine serum (Premium Select, Atlanta Biologicals), 100 IU/mL penicillin, 100 μg/mL streptomycin and 2 mM L-glutamine) with adipogenic cocktail (500 μM isometylbutylxanthine, 1 μM dexamethasone, 5 μg/mL insulin) and either 500 nM ROSI, 50 nM TBT or ToxCast™ chemicals (as noted for 3T3-L1 cells) for 14 days, replacing the media every 3 days.
Cells were either fixed in 3.7% formaldehyde in phosphate-buffered saline (PBS) for 30 min at room temperature (RT) for lipid quantitation, or homogenized in TriPure (Roche, Mannheim, Germany) for gene expression analysis. For lipid quantitation, fixed cells were washed twice with PBS and maintained in PBS overnight at 4°C to release residual phenol red. Background of cells were measured prior to staining. Cells were stained with 1 μg/mL Nile red (CAS No. 7385-67-3) (to detect lipid accumulation) and 1 μg/mL Hoechst 33342 (ThermoFisher Scientific) (to detect nuclei as a surrogate for cell number) in PBS for 15 min in the dark at RT and washed twice with PBS. […] Background values of Hoechst and Nile red were subtracted from the RFUs after staining and the ratio RFUNile Red:RFUHoechst was calculated. Data are represented as mean ± SEM. Total RNA was isolated using TriPure (Roche) as recommended by the manufacturer. Reverse transcription and quantitative real-time RT-PCR (QPCR) were performed using Transcriptor RT and SYBR® Green Master Mix (Roche). cDNA was quantitated in a LightCycler® 480 System (Roche Diagnostics, Basel, Switzerland) using primer sets listed in Table S4. Each primer set amplified a single band as determined by gel electrophoresis and melting curve analysis. QPCR data were analyzed using the 2^ΔΔCt method ([Livak and Schmittgen 2001]) relative to ribosomal protein 36b4, normalizing to 0.1% DMSO vehicle. Error bars represent the SEM from four to six biological replicates calculated using standard propagation of error ([Bevington and Robinson 2003]).

PPARγ = details: cited from earlier work; for PPARγ agonists: EC10, NCGC: AC10, ToxCast 2014 release; for AC50: PPARγ, NA = not active; for EC50: gain AC50, ToxCast 2014 release, read-out: PPARγ agonists: EC50, NCGC
COS7 cells = assay: Cytotoxicity in transfected COS7 cells measured as decreased β-galactosidase activity
Experimental: pCMX-Gal4, pCMX-Gal4-mPPARγ, and pCMX-Gal4-hRXRα were previously described ([Grün et al. 2006]). Transient transfections were performed in COS7 cells as described ([Chamorro-García et al. 2012]). Briefly, COS7 cells were seeded at 15,000 cells per well in 96-well tissue culture plates in 10% calf bovine serum. The following day, cells were transfected in Opti-MEM at ~ 90% confluency. One microgram of CMX-GAL4 effector plasmid was co-transfected with 5 μg tk-(MH100)4-luciferase reporter and 5 μg of CMX-β-galactosidase transfection control plasmids in Opti-MEM® using Lipofectamine® 2000 reagent (Invitrogen™ Life Technologies, Carlsbad, CA, USA), following the manufacturer’s recommended protocol. All chemicals were solvated in dimethyl sulfoxide (DMSO). After overnight incubation, the medium was replaced with Dulbecco’s Modified Eagle Medium (DMEM; HyClone, Logan, UT, USA), 10% resin charcoal stripped fetal bovine serum (FBS) plus ligands at concentrations indicated in the figure legends for an additional 24 hr. DMSO concentration was maintained at 0.05% across all chemical treatments. Cells were lysed and assayed for luciferase and β-galactosidase activity as previously described ([Forman et al. 1995]). All transfections were performed in triplicate and reproduced in multiple experiments. Data are reported as fold induction or reduction over vehicle ([…]) controls ± SEM (standard error of the mean) using standard propagation of error ([Bevington and Robinson 2003]). […] The EC50, EC10, IC50, and IC10 values from NCGC and ToxCast™ are reported from gain AC50 and AC10 values in the ToxCast™ 2014 release ([Filer et al. 2014]).
Figure 1 ToxCast™ Chemical Activity on PPARγ. The ability of a graded dose series of ToxCast™ chemicals to (A) activate or (B) antagonize GAL4-mPPARγ was tested in transiently transfected COS7 cells. (A, B) Data points are averages of triplicate transfections (three biological replicates). […] Data are depicted as (A) fold induction or (B) reduction over vehicle (0.05% DMSO) controls ± SEM. (A) ToxCast™ chemicals were tested in 3-fold serial dilutions from 100 μM through 0.137 μM, with the final data point being 0.05% DMSO. Rosiglitazone serves as a positive control activator. (B) ToxCast™ chemicals were tested in 3-fold serial dilutions from 100 μM, in competition with 50 nM rosiglitazone (Rosi). […] (C) EC50, EC10, IC50, and IC10 values calculated from A and B are reported and compared to commercial assays (see Figure S1). Note: ATG, Attagene GAL-PPARγ activation assay; NCGC, GeneBLAzer® agonist (EC values) or antagonist (IC values) assays. Triphenyltin was previously published ([Kanayama et al. 2005]).

[2] = ref Filer et al. 2014, read-out: NCGC Agonist AC50, 2014 Release
[3] = ref Knudsen et al. 2011, read-out: NCGC Agonist AC50, 2011 Release

Fc1ccc(Oc2ccnc3cc(Cl)cc(Cl)c23)cc1 [Quinoxyfen]
Adipogenesis 3T3-L1 (result in words) (3T3-L1 preadipocytes): Positive | Adipogenic differentiation of mBMSCs (result in words) ([1]; 14 days, Figure 7): could differentiate these uncommitted stem cells into adipocytes | PPARγ agonists: EC10, NCGC (PPARγ; ref Filer et al. 2014): 2.44 µM | AC50 (PPARγ; [2]): 40600 nM | AC50 (PPARγ; [3]): 6700 nM | EC50 (PPARγ; ref Filer et al. 2014): 40.6 µM

CCC(C)(C)C(=O)OC1=C(c2ccc(Cl)cc2Cl)C(=O)OC12CCCCC2 [Spirodiclofen]
Concentration at which cytotoxicity (decreased β-galactosidase activity) was observed (COS7 cells; transfected COS7 cells, 24 hr): 100 µM | Adipogenesis 3T3-L1 (result in words) (3T3-L1 preadipocytes): Positive | Adipogenic gene expression (Fabp4, Fsp27, Lpl), QPCR (3T3-L1 preadipocytes): increases | Induction of adipogenesis in 3T3-L1 preadipocytes, doses (3T3-L1 preadipocytes): induced adipogenesis at all doses tested | Induction of adipogenesis in mBMSCs, doses ([1]; 14 days): induced adipogenesis at 10 and 20 μM | Adipogenic gene expression (Fabp4, Fsp27, Lpl), QPCR [1]: increases | PPARγ agonists: EC10, NCGC (PPARγ; ref Filer et al. 2014): 0.17 µM | AC50 (PPARγ; [2]): 1600 nM | AC50 (PPARγ; [3]): 2800 nM | EC50 (PPARγ; ref Filer et al. 2014): 1.64 µM

O=[N+]([O-])c1cc(C(F)(F)F)c(Cl)c([N+](=O)[O-])c1Nc1ncc(C(F)(F)F)cc1Cl [Fluazinam]
Concentration at which cytotoxicity (decreased β-galactosidase activity) was observed (COS7 cells; transfected COS7 cells, 24 hr): 100 µM | Adipogenesis 3T3-L1 (result in words) (3T3-L1 preadipocytes): Negative | AC50 (PPARγ; [2]): 70 nM

CCC(C)(NC(=O)c1cc(Cl)c(C)c(Cl)c1)C(=O)CCl (centres unmarked) [Zoxamide]
Concentration at which cytotoxicity (decreased β-galactosidase activity) was observed (COS7 cells; African green monkey, 24 h): ≥ 10 µM | Lipid accumulation: TOXIC mark in place of bar (3T3-L1 preadipocytes): TOXIC | Adipogenesis 3T3-L1 (result in words) (3T3-L1 preadipocytes): Positive | Adipogenic gene expression (Fabp4, Fsp27, Lpl), QPCR (3T3-L1 preadipocytes): increases | Induction of adipogenesis in 3T3-L1 preadipocytes, doses (3T3-L1 preadipocytes): induced adipogenesis at the lowest dose | Concentration toxic to 3T3-L1 cells (3T3-L1 preadipocytes; mouse, 5 days): ≥ 10 µM | Lipid accumulation: TOXIC mark in place of bar [1]: TOXIC | Induction of adipogenesis in mBMSCs, doses ([1]; 14 days): induced differentiation at 2 and 10 μM | Adipogenic gene expression (Fabp4, Fsp27, Lpl), QPCR [1]: increases | Concentration toxic to mBMSCs ([1]; mouse, 14 days): ≥ 20 µM
